The test system of assay [1] is Plasmodium falciparum. Briefly: Antimalarial activity against chloroquine-sensitive Plasmodium falciparum FCR3. The format is functional, organism-based.
The subject of assay [2] is FM3A. Briefly: Cytotoxicity against mouse FM3A cell line. In kind it is functional, cell-based.
The subject of assay [3] is FM3A. Put plainly: Selectivity ratio of EC50s against Plasmodium falciparum FCR3 to mice (Mus musculus) FM3A cells. The format is functional.

Molecules are shown by their SMILES.

For `CCCCCCCC[n+]1ccc(C(=O)NCCCCCCNC(=O)c2cc[n+](CCCCCCCC)cc2)cc1.[Br-].[Br-]`, the results for the EC50 in assay [1] and in assay [2] were 10 nM and 5800 nM, respectively. The “Ratio EC50” value in assay [3] amounted to 580.
On to `CCCCCCCCCC[n+]1ccc(C(=O)NCCCCCCNC(=O)c2cc[n+](CCCCCCCCCC)cc2)cc1.[Br-].[Br-]`, for which the EC50 was 40 nM in assay [1] and 450 nM in assay [2]. For the same compound, the “Ratio EC50” value in assay [3] is reported as 11.
In the same order, the values of `CCCCCC[n+]1ccc(C(=O)NCCCCCCNC(=O)c2cc[n+](CCCCCC)cc2)cc1.[Br-].[Br-]` are 52 nM, more than 17300 nM and more than 333.
The like results for `CCCCCCCCCCCC[n+]1ccc(C(=O)NCCCCCCNC(=O)c2cc[n+](CCCCCCCCCCCC)cc2)cc1.[Br-].[Br-]` were, in that order, 130 nM, 420 nM and 3.
In the same order, the values of `CCCCCCCCCCCCCC[n+]1ccc(C(=O)NCCCCCCNC(=O)c2cc[n+](CCCCCCCCCCCCCC)cc2)cc1.[Br-].[Br-]` are 1100 nM, 2800 nM and 3.
As to `CCCCCCCCCCCCCCCC[n+]1ccc(C(=O)NCCCCCCNC(=O)c2cc[n+](CCCCCCCCCCCCCCCC)cc2)cc1`, the EC50 was 3500 nM in assay [1] and 2200 nM in assay [2].
Consider `CCN(CC)CCCC(C)Nc1ccnc2cc(Cl)ccc12` (centres undefined) [CHLOROQUINE], for which, in assay [3], the “Ratio EC50” value was determined as 1800.
Regarding `C=C[C@H]1CN2CC[C@H]1C[C@H]2[C@H](O)c1ccnc2ccc(OC)cc12` [QUININE], the “Ratio EC50” value in assay [3] stood at 910.

By EC50 is commonly meant the concentration needed to bring the measured effect to its halfway point.

Values taken from ChEMBL document CHEMBL1147011, “Antimalarial effect of bis-pyridinium salts, N,N'-hexamethylenebis(4-carbamoyl-1-alkylpyridinium bromide)” (Bioorg Med Chem Lett, 2006).
